From US10481149B2

Assays:
BSEP [1] = biological target: T1, BSEP (Mus musculus, UniProt Q9QY30); assay: IC50 for inhibition of BSEP activity in mouse hepatocytes; assay type: cell-based
T1 sequence (Q9QY30 1-1321): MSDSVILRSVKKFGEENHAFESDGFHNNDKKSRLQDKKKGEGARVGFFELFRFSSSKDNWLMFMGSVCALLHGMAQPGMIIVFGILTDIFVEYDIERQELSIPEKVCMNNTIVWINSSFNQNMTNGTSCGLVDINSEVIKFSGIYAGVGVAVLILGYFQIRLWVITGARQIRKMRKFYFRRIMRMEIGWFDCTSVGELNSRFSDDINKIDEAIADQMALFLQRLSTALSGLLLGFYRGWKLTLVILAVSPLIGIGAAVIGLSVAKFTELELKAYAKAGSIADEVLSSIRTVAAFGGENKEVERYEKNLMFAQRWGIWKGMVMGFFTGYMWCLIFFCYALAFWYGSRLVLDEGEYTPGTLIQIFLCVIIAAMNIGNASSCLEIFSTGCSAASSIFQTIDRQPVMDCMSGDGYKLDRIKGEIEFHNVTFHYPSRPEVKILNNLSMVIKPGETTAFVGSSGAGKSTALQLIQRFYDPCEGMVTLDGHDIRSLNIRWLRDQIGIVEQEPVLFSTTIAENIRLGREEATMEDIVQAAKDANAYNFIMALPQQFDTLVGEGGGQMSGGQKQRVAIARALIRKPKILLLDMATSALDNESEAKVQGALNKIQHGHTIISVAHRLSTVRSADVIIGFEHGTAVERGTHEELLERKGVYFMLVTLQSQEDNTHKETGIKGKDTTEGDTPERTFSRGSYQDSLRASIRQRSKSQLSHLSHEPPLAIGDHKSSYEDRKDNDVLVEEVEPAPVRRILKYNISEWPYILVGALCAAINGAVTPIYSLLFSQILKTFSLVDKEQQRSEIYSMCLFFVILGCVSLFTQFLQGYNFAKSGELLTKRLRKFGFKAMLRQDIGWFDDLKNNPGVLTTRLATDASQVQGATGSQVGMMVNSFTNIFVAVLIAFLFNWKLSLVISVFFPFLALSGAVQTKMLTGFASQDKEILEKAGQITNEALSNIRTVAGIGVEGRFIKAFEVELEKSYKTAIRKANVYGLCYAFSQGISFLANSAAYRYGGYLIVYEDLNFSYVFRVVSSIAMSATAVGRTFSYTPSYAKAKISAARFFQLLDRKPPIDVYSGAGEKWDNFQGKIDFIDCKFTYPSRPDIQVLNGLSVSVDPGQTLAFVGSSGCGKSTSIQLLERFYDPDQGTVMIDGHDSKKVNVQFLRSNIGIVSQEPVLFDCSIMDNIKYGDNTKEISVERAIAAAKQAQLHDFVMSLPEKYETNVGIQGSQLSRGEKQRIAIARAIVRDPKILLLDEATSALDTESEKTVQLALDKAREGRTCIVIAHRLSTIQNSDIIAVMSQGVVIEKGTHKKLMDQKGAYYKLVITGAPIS
Method: (§1) Kinetic parameters were calculated using standard Michaelis-Menten kinetics. IC50 values were determined using Prism software (La Jolla, Calif.) or median-effect equation. [Chou et al., Theoretical basis, experimental design, and computerized simulation of synergism and antagonism in Drug Combination Studies. Pharmacological Reviews 58, 621, 2006]

BSEP [2] = biological target: BSEP (Homo sapiens, UniProt O95342); assay: IC50 for inhibition of BSEP activity in human hepatocytes; assay type: cell-based
BSEP (Homo sapiens, UniProt O95342), sequence (O95342 whole entry): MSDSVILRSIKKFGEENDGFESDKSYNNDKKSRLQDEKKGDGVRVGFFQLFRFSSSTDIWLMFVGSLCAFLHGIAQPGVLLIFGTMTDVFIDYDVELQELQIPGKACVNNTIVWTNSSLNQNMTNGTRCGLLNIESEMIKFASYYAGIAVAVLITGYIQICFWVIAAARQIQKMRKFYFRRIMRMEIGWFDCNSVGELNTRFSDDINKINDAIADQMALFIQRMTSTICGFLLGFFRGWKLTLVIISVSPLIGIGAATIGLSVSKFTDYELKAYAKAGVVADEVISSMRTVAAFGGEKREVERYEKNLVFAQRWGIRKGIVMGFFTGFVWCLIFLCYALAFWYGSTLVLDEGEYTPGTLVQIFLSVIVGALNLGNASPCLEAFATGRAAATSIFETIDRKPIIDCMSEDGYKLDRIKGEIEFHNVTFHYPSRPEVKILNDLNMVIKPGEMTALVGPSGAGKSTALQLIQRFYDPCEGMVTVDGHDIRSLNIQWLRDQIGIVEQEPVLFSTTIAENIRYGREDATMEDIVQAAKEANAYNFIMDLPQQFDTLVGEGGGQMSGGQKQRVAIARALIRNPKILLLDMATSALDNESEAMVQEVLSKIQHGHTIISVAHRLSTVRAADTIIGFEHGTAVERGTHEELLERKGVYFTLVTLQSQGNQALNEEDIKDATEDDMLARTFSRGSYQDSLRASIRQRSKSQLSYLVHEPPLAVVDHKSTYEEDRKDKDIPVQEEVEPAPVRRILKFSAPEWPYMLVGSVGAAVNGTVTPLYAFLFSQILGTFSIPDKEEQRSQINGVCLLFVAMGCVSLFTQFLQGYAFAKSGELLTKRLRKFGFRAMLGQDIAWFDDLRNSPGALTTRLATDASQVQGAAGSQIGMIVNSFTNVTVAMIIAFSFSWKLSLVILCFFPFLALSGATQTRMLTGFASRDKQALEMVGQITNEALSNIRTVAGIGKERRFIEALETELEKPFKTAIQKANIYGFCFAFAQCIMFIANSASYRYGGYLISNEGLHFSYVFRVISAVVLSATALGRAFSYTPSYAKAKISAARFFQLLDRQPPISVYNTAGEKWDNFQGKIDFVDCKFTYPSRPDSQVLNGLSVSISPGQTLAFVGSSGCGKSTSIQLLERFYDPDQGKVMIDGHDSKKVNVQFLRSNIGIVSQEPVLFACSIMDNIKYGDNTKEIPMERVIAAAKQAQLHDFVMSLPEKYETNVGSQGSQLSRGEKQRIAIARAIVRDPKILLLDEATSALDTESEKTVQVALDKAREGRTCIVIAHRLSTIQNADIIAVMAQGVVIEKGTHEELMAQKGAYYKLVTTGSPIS
Method: as §1

Row | Compound | IC50 (BSEP [1]) | IC50 (BSEP [2])
1 | CC(=O)N1CCN(c2ccc(OCC3COC(Cn4ccnc4)(c4ccc(Cl)cc4Cl)O3)cc2)CC1 (stereo not shown) [Ketoconazole, ketoconazole] | > 10 µM | –
2 | CO[C@H]1/C=C/O[C@@]2(C)Oc3c(C)c(O)c4c(O)c(c(/C=N/N5CCN(C)CC5)c(O)c4c3C2=O)NC(=O)/C(C)=C\C=C\[C@H](C)[C@H](O)[C@@H](C)[C@@H](O)[C@@H](C)[C@H](OC(C)=O)[C@@H]1C [Rifampicin] | > 10 µM | –
3 | Cc1c(C)c2c(c(C)c1O)CCC(C)(COc1ccc(CC3SC(=O)NC3=O)cc1)O2 (stereo not shown) [Troglitazone, troglitazone] | > 10 µM | 1 to 10 µM
